Paper PMC5384001 (Scientific Reports, 2017)
Positions count from the first letter of the chain named. Values joined by “and” are separate entries in the source; they are usually repeats but may differ in a detail not shown here. Equal values may be shown once.

Key:
[1] = molecular target: T1, GluD2-Lc(Y543Q)-(HS2)GluN1 (Rattus norvegicus, UniProt Q63226, A654T/A766F/D767R/N763E/R768S/T764L/V761T/V765F/Y543Q); test: Two-electrode voltage clamp in Xenopus oocytes, inhibition of spontaneous currents; type: cell-based; details: fraction of spontaneous current inhibited by saturating D-serine
T1 construct: the function of full-length receptors as well, we introduced them into the GluD2 lurcher mutant (GluD2-Lc); expressed in transfected cells; host or cells: Xenopus laevis oocytes injected with cRNA
T1 sequence (Q63226 24-1007 Y543Q/A654T/V761T/N763E/T764L/V765F/A766F/D767R/R768S): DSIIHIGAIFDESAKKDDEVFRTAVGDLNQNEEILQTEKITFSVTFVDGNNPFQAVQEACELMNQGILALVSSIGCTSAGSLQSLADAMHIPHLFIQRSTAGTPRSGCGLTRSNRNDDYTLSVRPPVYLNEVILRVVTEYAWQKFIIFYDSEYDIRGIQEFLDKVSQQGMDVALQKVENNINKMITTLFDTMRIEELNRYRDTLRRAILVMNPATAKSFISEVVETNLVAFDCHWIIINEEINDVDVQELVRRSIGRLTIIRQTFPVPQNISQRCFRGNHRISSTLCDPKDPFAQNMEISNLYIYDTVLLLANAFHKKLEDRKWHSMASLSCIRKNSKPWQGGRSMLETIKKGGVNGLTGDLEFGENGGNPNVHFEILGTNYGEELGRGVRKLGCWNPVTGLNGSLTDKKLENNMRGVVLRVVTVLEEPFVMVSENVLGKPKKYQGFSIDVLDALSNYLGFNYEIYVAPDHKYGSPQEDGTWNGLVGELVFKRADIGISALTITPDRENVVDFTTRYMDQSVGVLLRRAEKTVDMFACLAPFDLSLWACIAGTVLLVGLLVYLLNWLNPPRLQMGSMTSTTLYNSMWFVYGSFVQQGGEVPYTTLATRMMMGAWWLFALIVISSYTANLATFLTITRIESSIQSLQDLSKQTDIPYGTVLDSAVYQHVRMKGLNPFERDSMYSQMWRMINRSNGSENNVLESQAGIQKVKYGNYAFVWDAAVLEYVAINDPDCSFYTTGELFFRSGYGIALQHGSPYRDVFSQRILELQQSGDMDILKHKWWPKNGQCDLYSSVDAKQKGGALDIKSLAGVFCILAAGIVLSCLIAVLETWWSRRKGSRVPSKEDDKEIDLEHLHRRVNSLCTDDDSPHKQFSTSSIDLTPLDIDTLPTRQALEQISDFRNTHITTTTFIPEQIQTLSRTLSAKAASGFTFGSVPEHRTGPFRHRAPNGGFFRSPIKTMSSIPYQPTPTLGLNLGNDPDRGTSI
Source text: (§1) All cDNAs for expression in Xenopus oocytes were cloned into the vector pSGEM[30]. Point mutants of GluD2-Lc were constructed by overlap extension PCR with mutagenic oligonucleotide primers. The GluD2-Lc-(H)GluN1 chimera was constructed by transferring the S1- and S2-encoding sequences from GluD2-LBD-(H)GluN1 to GluD2-Lc via overlap extension PCR using tail primers. The S1 and S2 sequences were transferred separately, yielding GluD2-Lc-(HS1)GluN1 and GluD2-Lc-(HS2)GluN1 constructs. GluD2-Lc-(H)GluN1 was then produced from these by another overlap extension PCR. Complementary RNA (cRNA) for injection into oocytes was synthesised from 1 μg of linearised template DNA with the mMESSAGE mMACHINE in vitro transcription kit (Ambion, Austin, TX, USA).
(§2) Oocytes were obtained by surgically removing parts of the ovaries from Xenopus laevis (Nasco, Fort Atkinson, WI, USA) anaesthetised with 1.5 g/L 3-aminobenzoic acid ethylester (Sigma, Taufkirchen, Germany). […] Oocytes were injected with 11 ng cRNA (10 ng of each cRNA for co-expression of GluN1 and GluN2A) using a nanoliter injector (WPI, Sarasota, FL, USA). Four days after cRNA injection, current responses were recorded under voltage clamp at –70 mV with a Turbo Tec-10CD amplifier (npi electronic, Tamm, Germany) controlled by Patchmaster software (HEKA, Lambrecht, Germany). Currents were filtered with a 20 Hz low-pass filter and then digitised with a sampling rate of 50 Hz. Recording electrodes were pulled from borosilicate glass (Hilgenberg, Malsfeld, Germany) with an L/M-3P-A vertical pipette puller (List-Medical), filled with 3 M KCl, and had resistances of 0.5–5 MΩ (voltage electrode) or 0.5–1.5 MΩ (current electrode). Recordings were performed in a 50 μL chamber under constant superfusion with extracellular solution at a flow rate of 3–5 mL/min. […] Finally, Ba-NFR and then NMDGR were applied again to check for reversibility.

[2] = molecular target: T2, GluD2-Lc(Y543Q) (Rattus norvegicus, UniProt Q63226, A654T/Y543Q); test: as above; type: cell-based; details: fraction of spontaneous current inhibited by saturating D-serine
T2 construct: the function of full-length receptors as well, we introduced them into the GluD2 lurcher mutant (GluD2-Lc); expressed in transfected cells; host or cells: Xenopus laevis oocytes injected with cRNA
T2 sequence (Q63226 24-1007 Y543Q/A654T): T1 sequence (Q63226 24-1007 Y543Q/A654T/V761T/N763E/T764L/V765F/A766F/D767R/R768S) with T738V, E740N, L741T, F742V, F743A, R744D, S745R
Source text: as §1, §2

N[C@H](CO)C(=O)O [D-serine]
D-serine efficacy Mean ± SEM [1]: 24.1 ± 0.4% | D-serine efficacy Mean ± SEM [2]: 36% and 36.2 ± 0.6%
